Laboratory results as given in patent publication US9173871B2, “Oxazole and thiazole compounds as beta-catenin modulators and uses thereof” (New York University, priority 2008, dated 2015).

What was measured:
HCT116 cells = assay: Flow cytometry cell cycle analysis of HCT116 cells; type: cell-based; settings: HCT116, 16 hrs, FIG. 9
Procedure: In order to test the inhibitory effect of candidate compounds on the transcription of endogenous Wnt/β-cat target genes in HCT116 cells, lysates were prepared from cells that were either treated with candidate small molecules or DMSO control. […] Cell cycle arrest of compound treated HCT116 cells was further confirmed by the reduced number of phosphorylated Histone3 (PH3) positive cells, when cultured in the presence of candidate compounds (FIG. 10).
Flow Cytometry analysis was performed on HCT116 cells treated with candidate compounds for 16 hrs per standard protocols. Briefly, compound treated cells were harvested and washed in 1×PBS followed by fixation in 70% Ethanol at 4° C. for 16 hrs. Cells were then washed in 1×PBS and treated with RNAse at 37° C. for 30′. Following extensive washes in 1×PBS, cellular DNA was stained with 500 ug/ml of Propidium Iodide at room temperature for 10′. Cells were washed again in 1×PBS and analysed by flow cytometry on a FACScalibur machine (Beckson Dickinson) at the NYU flow cytometry core facility.

[1] = test system: Wnt/β-catenin STF-LUC reporter in LNCaP; assay: β-catenin/Wnt-responsive STF16-LUC reporter with S37A β-catenin in LNCaP cells; type: cell-based
Procedure: (§1) LNCaP or LNCaP-abl (ABL) cells were cotransfected with 0.1 μg β-galactosidase and 0.2 μg S37A stabilized β-catenin together with the indicated luciferase reporter constructs; STF16-LUC (β-catenin reporter) and LB1-LUC (AR reporter). […] Luciferase activity was normalized to β-galactosidase expression.
(§2) To determine the IC50 for the β-catenin/Wnt-responsive reporter, cells were cotransfected with β-galactosidase (LacZ) and a constitutively active S37A stabilized β-catenin mutant construct together with the reporter construct, STF16-LUC. To determine the IC50 for the AR-responsive construct, cells were cotransfected with LacZ and the AR responsive reporter construct, ARE-LUC. […] B) AR overexpression circumvents C3 repression of AR-responsive transcription. LNCaP cells were cotransfected with 0.1 μg LacZ and 0.2 μg of the AR responsive reporter construct, ARE-LUC, together with 0, 0.05, 0.1 and 0.2 μg of an AR expression vector. […] Luciferase activity was normalized to LacZ expression.
(§3) 108(15): 5954-63], it had not been determined in prostate cancer cells. […] 69(8): 3332-8].

[2] = test system: ARE-LUC androgen responsive reporter gene in LNCaP; assay: AR responsive luciferase reporter (ARE-LUC / LB1-LUC) in LNCaP cells; type: cell-based
Procedure: as §1, §2, §3

LNCaP cells [3] = assay: Proliferation assay (neutral red uptake), LNCaP; type: cell-based; settings: 20 μM daily
Procedure: (§4) A) Cells were cultured in phenol-red free RPMI with either 5% charcoal-stripped FBS supplemented with 0.1 nM R1881 (LNCaP) or 10% charcoal-stripped FBS alone (LNCaP-abl). […] Neutral red uptake assay was performed at the end of treatment to estimate the number of viable cells. […] Fixed cells were stained with Propidium Iodide and analyzed for DNA content using flow cytometry. The first and the second red peak and the dashed area represent G0/G1, M and S-phase cell population, respectively.

LNCaP-abl cells [4] = assay: Proliferation assay (neutral red uptake), LNCaP-abl; type: cell-based; settings: 20 μM daily
Procedure: as §4

VCaP cells = assay: Growth of VCaP cells; type: cell-based; settings: 20 μM daily
LNCaP cells [5] = assay: Flow cytometry DNA content (propidium iodide), LNCaP; type: cell-based; settings: 20 μM, 24 hr
Procedure: as §4

LNCaP-abl cells [6] = assay: Flow cytometry DNA content (propidium iodide), LNCaP-abl; type: cell-based; settings: 20 μM, 24 hr
Procedure: as §4

LNCaP cells [7] = assay: PARP cleavage immunoblot as marker of apoptosis, LNCaP; type: cell-based; settings: 20 μM, 72 hr
[8] = test system: AR and β-catenin target genes in LNCaP cells; assay: Q-PCR of AR and β-catenin target genes in LNCaP cells; type: cell-based; settings: 20 μM, 24 hr
Text: Samples are normalized to RPL19 and E-cadherin and GAPDH are included as controls.
While β-catenin can act as an AR coactivator [Song et al., J Biol Chem, 2005. 280(45): 37853-67], AR mRNA levels are also directly regulated by TCF binding sites in the AR promoter [Yang et al., Oncogene, 2006. 25(24): 3436-44]. […] AR mRNA was quantified along with well-characterized AR target genes, Nkx3.1 and PSA. In addition, CDC20, CDK1 and UBE2C, M phase cell cycle regulatory genes that are AR targets in LNCaP-abl cells were examined [Wang et al., Cell, 2009. 138(2): 245-56]. Levels of c-myc were also examined since c-myc is a known Wnt/β-catenin target gene and assessment of information available through the Memorial Sloan Kettering cBio Cancer Genomics portal [Taylor et al., Cancer Cell, 2010. […] E-cadherin and GAPDH are not affected by C3 treatment.

[9] = test system: AR, PSA, c-myc, CDK1, UBE2C protein in LNCaP cells; assay: Western blot time course of AR and β-catenin target proteins in LNCaP cells; type: cell-based
Procedure: ABL cells were treated similarly, but cultured in 5% charcoal-stripped phenol-red free RPMI. The mRNA was extracted at each time point and relative levels of indicated genes were analyzed by Q-PCR and normalized to RPL19. B) Protein from LNCaP cells was analyzed at each time point and immunoblotted with indicated antibodies.
Expression of tubulin (included as an internal loading control) and β-catenin were unaffected.

AR nascent mRNA = assay: Q-PCR of nascent AR mRNA in LNCaP cells; type: cell-based; settings: 20 μM, four hours, presence or absence of R1881
Procedure: RNA was extracted, treated with deoxyribonuclease and subjected to cDNA synthesis. Relative levels of nascent AR mRNA were analyzed by Q-PCR using primers flanking exon/exon and exon/intron.

membrane bound β-catenin = assay: Immunofluorescence of membrane β-catenin in androgen-deprived LNCaP cells; type: cell-based
Text: An important objective in the initial screen for inhibitors of β-catenin responsive transcription (iCRT) was to isolate compounds that diminished the nuclear function of β-catenin without affecting β-catenin interaction with E-cadherin at the cell membrane.

[10] = Toxicity / maximum tolerated dose in mice; type: in vivo
Procedure: Importantly, given the role of the Wnt/β-catenin pathway as a regulator of intestinal stem cells [Korinek et al., Nat Genet, 1998. 19(4): 379-83; van de Wetering et al., Cell, 2002. […] Accordingly, mice were injected 5 days/week for 5 weeks at a range of concentrations between 50-125 mg/Kg and compared to vehicle-alone control. Toxicity was monitored by assessing mouse weight, blood counts and mortality. The MTD determination was performed at the fee-for-service, anti-tumor assessment facility at Memorial Sloan Kettering Cancer Center.

[11] = 75 mg/Kg injected 5 days a week for 5 weeks

With `CCc1ccc(-c2nc(CSCC(=O)NCCc3ccccc3)c(C)o2)cc1` [Compound C3] the cell cycle effect (HCT116 cells) was “G0/G1 arrest”, the IC50 [1] was 140 nM and the “Wnt reporter gene activity (STF16-LUC)” value ([1]; 20 uM, 24 hr) was “inhibits”. For the same molecule, the IC50 ([2]; LNCaP (first of two values)) was 1440 nM, the “AR reporter gene activity (LB1-LUC)” value ([2]; LNCaP, 20 uM, 24 hr) was “inhibits” and the cell growth (LNCaP cells [3]) was “completely abolished”. The cell growth (LNCaP-abl cells [4]) was “completely abolished”, the cell growth (VCaP cells) was “completely abolished” and the “cell cycle effect by flow cytometry” value (LNCaP cells [5]) was “growth arrest of the cells in the G0/G1 phase”. For the same molecule, the “cell cycle effect by flow cytometry” value (LNCaP-abl cells [6]) was “growth arrest of the cells in the G0/G1 phase”, the “PARP cleavage (apoptosis marker)” value (LNCaP cells [7]) was “Increased levels of PARP cleavage” and the “mRNA of E-cadherin and GAPDH (controls)” value [8] was “not affected”. For the same molecule, the “mRNA of AR, NR×3.1, CDC20, PSA, CDK1, c-myc and UBE2C” value ([8]; with or without R1881) was “diminished”, the “expression of tubulin and β-catenin protein” value [9] was “unaffected” and the “levels of AR, PSA, c-myc, CDK1 and UBE2C protein” value ([9]; especially at 48-hour time point) was “diminished levels”. The “levels of newly synthesized AR mRNA” value (AR nascent mRNA) was “diminishes”, the “ability of β-catenin to interact with E-cadherin at the cell membrane” value (membrane bound β-catenin) was “does not affect” and the body weight [10, 11] was “did not lose weight”. The gut toxicity [10, 11] was “no gut toxicity”, the “histology of all major organs” value [10, 11] was “normal” and the “toxicity (overall)” value [10, 11] was “not toxic”. For the same molecule, the toxicity ([10]; continuous injection of 20 mg/Kg by mini-pump for 5 weeks) was “no toxicity”.
